Molecular target: T1, SETD2(1434-1711) (Homo sapiens, UniProt Q9BYW2)
T1 construct: SETD2 (1434-1711) Assay; catalogue N/A
T1 sequence (Q9BYW2 1434-1711): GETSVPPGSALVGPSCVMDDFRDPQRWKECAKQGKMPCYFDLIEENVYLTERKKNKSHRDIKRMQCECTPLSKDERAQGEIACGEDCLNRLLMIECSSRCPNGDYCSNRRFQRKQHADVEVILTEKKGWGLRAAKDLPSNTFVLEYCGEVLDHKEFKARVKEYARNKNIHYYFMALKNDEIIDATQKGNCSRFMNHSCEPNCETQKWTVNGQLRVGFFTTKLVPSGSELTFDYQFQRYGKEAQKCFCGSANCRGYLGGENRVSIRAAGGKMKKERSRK
Assay: SETD2 (1434-1711) assay
Assay type: biochemical
Details: read-out: SETD2 (1434-1711)

SMILES	IC50 [µM]
CCN1CCN([C@@H]2CCC[C@@H](NC(=O)c3cc4c(F)ccc(C)c4[nH]3)C2)CC1=O [compound 836]	4
Cc1ccc(C)c2[nH]c(C(=O)N[C@H]3CC[C@H](NC(=O)CCN)CC3)cc12 [compound 644]	19.5
Cc1cccc2cc(C(=O)NC(CCN(C)C)c3cccnc3)[nH]c12 (stereo not shown) [compound 725]	123
Cc1cccc2cc(C(=O)N3CCC(C(N)=O)CC3)[nH]c12 [compound 771]	> 200
Cc1cccc2cc(C(=O)NCc3ccccc3OCC3CC3)[nH]c12 [compound 767]	> 200
Cc1csc(C(C)NC(=O)c2cc3cccc(C)c3[nH]2)n1 (stereo not shown) [compound 688]	52.1
Cc1cccc2cc(C(=O)NC(c3ncccc3Cc3ccccc3)C3CC3)[nH]c12 (stereo not shown) [compound 817]	> 200
Cc1ccc(F)c2cc(C(=O)N[C@@H]3CCC[C@@H](N4CCN(CC(F)(F)F)CC4)C3)[nH]c12 [compound 827]	7.6
COC(=O)CC(NC(=O)c1cc2cccc(C)c2[nH]1)c1ccco1 (stereo not shown) [compound 648]	22.3
NCCC(=O)N[C@H]1CC[C@H](NC(=O)c2cc3cccc(Cl)c3[nH]2)CC1 [compound 697]	62.8
Cc1cccc2cc(C(=O)NCC(CN(C)C)c3ccccc3)[nH]c12 (stereo not shown) [compound 815]	> 200
CNC1CCCN(C(=O)c2cc3cccc(C)c3[nH]2)C1 (stereo not shown) [compound 800]	> 200
COC(=O)C[C@H](NC(=O)c1cc2cccc(C)c2[nH]1)c1ccccc1 [compound 690]	55.8
Cc1cnc(CNC(=O)c2cc3cccc(C)c3[nH]2)cn1 [compound 723]	116
Cc1cccc2cc(C(=O)N3CCN(c4ncccc4C(N)=O)CC3)[nH]c12 [compound 757]	> 200
Cc1cccc2cc(C(=O)NCc3cocn3)[nH]c12 [compound 733]	147
COC(=O)CC(NC(=O)c1cc2cccc(C)c2[nH]1)c1ccccc1C (stereo not shown) [compound 677]	39.5
Cc1cccc2cc(C(=O)NC3CC4CCC(C3)C4NC(=O)CCN)[nH]c12 (stereo not shown) [compound 640]	18.5
Cc1cccc2cc(C(=O)N3CCn4cncc4C3)[nH]c12 [compound 810]	> 200
Cc1noc(C(C)NC(=O)c2cc3cccc(C)c3[nH]2)n1 (stereo not shown) [compound 735]	165
Cc1cccc2cc(C(=O)Nc3cn4ccccc4n3)[nH]c12 [compound 796]	> 200
COC(=O)C[C@@H](NC(=O)c1cc2cccc(C)c2[nH]1)c1cccc(Cl)c1 [compound 634]	16.3

SMILES	IC50 [µM]
Cc1cccc2cc(C(=O)NCc3ccccc3N3CCNCC3)[nH]c12 [compound 636]	16.8
Cc1cccc2cc(C(=O)NC(C)c3ccccc3)[nH]c12 (stereo not shown) [compound 749]	> 200
Cc1cccc2cc(C(=O)NC(C)c3ccccc3C(F)(F)F)[nH]c12 (stereo not shown) [compound 788]	> 200
COc1cccc(C(O)CNC(=O)c2cc3cccc(C)c3[nH]2)c1 (stereo not shown) [compound 695]	62.1
Cc1cccc2cc(C(=O)NCc3nc4ccccc4o3)[nH]c12 [compound 779]	> 200
Cc1nonc1CNC(=O)c1cc2cccc(C)c2[nH]1 [compound 732]	137
Cc1cccc2cc(C(=O)N3CCCC3C(N)=O)[nH]c12 (stereo not shown) [compound 786]	> 200
Cc1ccc(F)c2cc(C(=O)N[C@@H]3CCC[C@@H](N4CCn5ccnc5C4)C3)[nH]c12 [compound 853]	9.7
Cc1cccc2cc(C(=O)NCC(O)C(F)F)[nH]c12 (stereo not shown) [compound 784]	> 200
Cc1cccc2cc(C(=O)NCc3cccc(CN4CCOCC4)c3)[nH]c12 [compound 709]	78.4
Cc1cccc2cc(C(=O)NC3CCN(Cc4ccccc4)CC3)[nH]c12 [compound 752]	> 200
Cc1cccc2cc(C(=O)N[C@H](CO)Cc3ccccc3)[nH]c12 [compound 765]	> 200
Cc1cccc2cc(C(=O)NCC(O)C3CC3)[nH]c12 (stereo not shown) [compound 731]	137
CCOC(=O)CC(NC(=O)c1cc2cccc(C)c2[nH]1)c1ccncc1 (stereo not shown) [compound 700]	68.9
COC(=O)CC(NC(=O)c1cc2cccc(C)c2[nH]1)c1ccccc1 (stereo not shown) [compound 775]	> 200
CNC(=O)CC(NC(=O)c1cc2cccc(C)c2[nH]1)c1cccnc1 (stereo not shown) [compound 809]	> 200
Cc1cccc2cc(C(=O)NC(c3cncc(CN(C)C)c3)C3CC3)[nH]c12 (stereo not shown) [compound 727]	125
CNC(=O)CC(NC(=O)c1cc2cccc(C)c2[nH]1)c1ncccc1C (stereo not shown) [compound 682]	45.4
Cc1cccc2cc(C(=O)NCc3ccnn3C)[nH]c12 [compound 693]	58.9
Cc1c(C(=O)N[C@H]2CC[C@H](N)CC2)[nH]c2c(C)cccc12 [compound 736]	168
Cc1cccc2cc(C(=O)Nc3cccnc3)[nH]c12 [compound 795]	> 200
Cc1cccc2cc(C(=O)N3CCN(C(N)=O)CC3)[nH]c12 [compound 787]	> 200

SMILES	IC50 [µM]
CC(=O)NC1CCN([C@@H]2CCC[C@@H](NC(=O)c3cc4c(F)ccc(C)c4[nH]3)C2)C1 (stereo partly shown) [compound 834]	5
Cc1cccc2cc(C(=O)NC(C)c3cccc(C(F)(F)F)c3)[nH]c12 (stereo not shown) [compound 790]	> 200
Cc1cccc2cc(C(=O)N3CCCC(NC(=O)CCN)C3)[nH]c12 (stereo not shown) [compound 798]	> 200
Cc1cccc2cc(C(=O)NCCN3CCOCC3)[nH]c12 [compound 746]	> 200
Cc1cccc2cc(C(=O)N3CCCc4ccccc4C3)[nH]c12 [compound 718]	103
Cc1ccc(F)c2cc(C(=O)Nc3cccc(N4C5CCC4CN(C)C5)c3)[nH]c12 [compound 349]	0.2
Cc1cccnc1C(NC(=O)c1cc2cccc(C(F)(F)F)c2[nH]1)C1CC1 (stereo not shown) [compound 717]	> 100
Cc1cccc2cc(C(=O)Nc3ccc(CN4CCOCC4)cc3)[nH]c12 [compound 691]	56.2
Cc1cccc2cc(C(=O)N[C@@H](CO)Cc3ccccc3)[nH]c12 [compound 692]	56.9
Cc1cccc2cc(C(=O)NCc3ccccc3Cl)[nH]c12 [compound 1153]	> 200
Cc1ccc(F)c2cc(C(=O)N[C@@H]3CCC[C@H](N4CCN(C(=O)C5CC5)CC4)C3)[nH]c12 [compound 830]	0.04
COC(=O)CC(NC(=O)c1cc2cccc(C)c2[nH]1)c1ccc(OC)cc1 (stereo not shown) [compound 777]	> 200
Cc1cccc2cc(C(=O)NCc3ncnn3C)[nH]c12 [compound 768]	> 200
CCc1cccc2cc(C(=O)NC(c3ccccn3)C3CC3)[nH]c12 (stereo not shown) [compound 803]	> 200
Cc1cccc2cc(C(=O)Nc3ccccn3)[nH]c12 [compound 673]	36
Cc1cccc2cc(C(=O)N[C@H]3C[C@@H]4CC[C@H]3CN4C(=O)CCCN)[nH]c12 [compound 625]	11
Cc1cccc2cc(C(=O)NC3C4CCC3CC(NC(=O)CCN)C4)[nH]c12 (stereo not shown) [compound 685]	50.5
COC(=O)CC(NC(=O)c1cc2cccc(C)c2[nH]1)c1cccc(Br)c1 (stereo not shown) [compound 669]	35.2
Cc1cccc2cc(C(=O)NCc3cccc(S(=O)(=O)N4CCCCC4)c3)[nH]c12 [compound 751]	> 200
COC(=O)CC(NC(=O)c1cc2cccc(C)c2[nH]1)c1cccs1 (stereo not shown) [compound 650]	> 23

— US12116358B2, “Substituted indoles and methods of use thereof” (EPIZYME, INC., priority 2018, dated 2024)
